Test results reported in the NIST ThermoML archive (doi:10.1016/j.jct.2012.03.034).
Numbers after ± are expanded uncertainties.

Assay: xn = mol fraction of the nth substance listed
Details: 101 kPa, Liquid; for speed of sound: Linear variable-path acoustic interferometer; for mass density: Vibrating tube method; for viscosity: dual vibrating plate viscometer, AandD Co. Ltd Model SV-10

CC(=O)[O-].CC[NH2+]CC [diethylammonium acetate] + CN1CCCC1=O
Details	mass density [kg/m3]	speed of sound [m/s]	viscosity [mPa·s]
298.15 K, x1 = 0.0234	1026.53 ± 0.31	1570 ± 2	1.83 ± 0.04
298.15 K, x1 = 0.0473	1027.19 ± 0.31	1570 ± 2	1.82 ± 0.04
298.15 K, x1 = 0.1188	1028.41 ± 0.31	1576 ± 2	2.26 ± 0.05
298.15 K, x1 = 0.1668	1029.09 ± 0.31	1575 ± 2	2.67 ± 0.06
298.15 K, x1 = 0.2393	1029.73 ± 0.31	1563 ± 2	3.57 ± 0.08
298.15 K, x1 = 0.3616	1030.18 ± 0.31	1527 ± 2	5.62 ± 0.12
298.15 K, x1 = 0.411	1030.19 ± 0.31	1510 ± 2	6.49 ± 0.14
298.15 K, x1 = 0.4856	1029.95 ± 0.31	1487 ± 2	7.94 ± 0.17
298.15 K, x1 = 0.6115	1028.88 ± 0.31	1458 ± 2	10.53 ± 0.22
298.15 K, x1 = 0.7391	1027.18 ± 0.31	1454 ± 2	13.14 ± 0.27
298.15 K, x1 = 0.8686	1024.96 ± 0.31	1486 ± 2	15.33 ± 0.32
298.15 K, x1 = 0.9493	1023.14 ± 0.31	1539 ± 2	16.26 ± 0.34
298.15 K, x1 = 0.9758	1022.3 ± 0.31	1562 ± 3	16.41 ± 0.34
298.15 K, x1 = 1	1021.41 ± 0.31	1608 ± 2	16.36 ± 0.34
303.15 K, x1 = 0.0234	1024.14 ± 0.3	1555 ± 2	1.6 ± 0.03
303.15 K, x1 = 0.0473	1024.34 ± 0.31	1557 ± 2	1.66 ± 0.03
303.15 K, x1 = 0.1188	1025.34 ± 0.31	1563 ± 2	2.03 ± 0.04
303.15 K, x1 = 0.1668	1025.85 ± 0.31	1565 ± 2	2.34 ± 0.05
303.15 K, x1 = 0.2393	1026.2 ± 0.31	1556 ± 2	3.09 ± 0.07
303.15 K, x1 = 0.3616	1026.29 ± 0.31	1523 ± 2	4.89 ± 0.1
303.15 K, x1 = 0.411	1026.22 ± 0.31	1508 ± 2	5.6 ± 0.12
303.15 K, x1 = 0.4856	1025.78 ± 0.31	1488 ± 2	6.88 ± 0.14
303.15 K, x1 = 0.6115	1024.47 ± 0.31	1460 ± 2	9.13 ± 0.19
303.15 K, x1 = 0.7391	1022.47 ± 0.31	1458 ± 2	11.3 ± 0.23
303.15 K, x1 = 0.8686	1019.99 ± 0.31	1494 ± 2	13.05 ± 0.27
303.15 K, x1 = 0.9493	1018.04 ± 0.31	1552 ± 2	13.74 ± 0.28
303.15 K, x1 = 0.9758	1017.29 ± 0.31	1574 ± 2	13.82 ± 0.29
303.15 K, x1 = 1	1016.52 ± 0.3	1612 ± 2	13.64 ± 0.28
308.15 K, x1 = 0.0234	1019.65 ± 0.3	1531 ± 2	1.48 ± 0.03
308.15 K, x1 = 0.0473	1019.91 ± 0.3	1536 ± 2	1.67 ± 0.04
308.15 K, x1 = 0.1188	1020.3 ± 0.31	1546 ± 2	1.87 ± 0.04
308.15 K, x1 = 0.1668	1020.67 ± 0.31	1548 ± 2	2.15 ± 0.05
308.15 K, x1 = 0.2393	1020.89 ± 0.31	1542 ± 2	2.84 ± 0.06
308.15 K, x1 = 0.3616	1020.97 ± 0.31	1514 ± 2	4.45 ± 0.09
308.15 K, x1 = 0.411	1020.77 ± 0.31	1502 ± 2	5.1 ± 0.11
308.15 K, x1 = 0.4856	1020.41 ± 0.31	1484 ± 2	6.24 ± 0.13
308.15 K, x1 = 0.6115	1019.23 ± 0.3	1462 ± 2	8.23 ± 0.17
308.15 K, x1 = 0.7391	1017.4 ± 0.3	1463 ± 2	10.18 ± 0.21
308.15 K, x1 = 0.8686	1015.03 ± 0.3	1501 ± 2	11.58 ± 0.24
308.15 K, x1 = 0.9493	1013.14 ± 0.3	1555 ± 2	12.1 ± 0.25
308.15 K, x1 = 0.9758	1012.47 ± 0.3	1580 ± 2	12.16 ± 0.25
308.15 K, x1 = 1	1011.87 ± 0.3	1616 ± 2	11.83 ± 0.24
313.15 K, x1 = 0.0234	1014.97 ± 0.3	1527 ± 2	1.37 ± 0.03
313.15 K, x1 = 0.0473	1015.32 ± 0.3	1532 ± 2	1.44 ± 0.03
313.15 K, x1 = 0.1188	1015.77 ± 0.3	1544 ± 2	1.75 ± 0.04
313.15 K, x1 = 0.1668	1016.03 ± 0.3	1547 ± 2	1.98 ± 0.04
313.15 K, x1 = 0.2393	1016.53 ± 0.3	1543 ± 2	2.61 ± 0.06
313.15 K, x1 = 0.3616	1016.79 ± 0.3	1520 ± 2	4.05 ± 0.08
313.15 K, x1 = 0.411	1016.77 ± 0.3	1509 ± 2	4.66 ± 0.1
313.15 K, x1 = 0.4856	1016.52 ± 0.3	1494 ± 2	5.67 ± 0.12
313.15 K, x1 = 0.6115	1015.76 ± 0.3	1473 ± 2	7.42 ± 0.15
313.15 K, x1 = 0.7391	1014.43 ± 0.3	1477 ± 2	9.06 ± 0.19
313.15 K, x1 = 0.8686	1012.59 ± 0.3	1515 ± 2	10.26 ± 0.21
313.15 K, x1 = 0.9493	1010.98 ± 0.3	1567 ± 2	10.62 ± 0.22
313.15 K, x1 = 0.9758	1010.43 ± 0.3	1592 ± 2	10.57 ± 0.22
313.15 K, x1 = 1	1010.08 ± 0.3	1617 ± 2	10.02 ± 0.21

CC[NH2+]CC.O=S(=O)([O-])O [diethylammonium hydrogen sulfate] + CN1CCCC1=O
Details	mass density [kg/m3]	speed of sound [m/s]	viscosity [mPa·s]
298.15 K, x1 = 0.016	1050.6 ± 1.2	1559 ± 2	2.45 ± 0.07
298.15 K, x1 = 0.0347	1067.85 ± 0.9	1555 ± 2	3.33 ± 0.13
298.15 K, x1 = 0.092	1113.77 ± 0.86	1539 ± 2	9.94 ± 0.24
298.15 K, x1 = 0.1316	1140.71 ± 0.75	1534 ± 2	15.78 ± 0.37
298.15 K, x1 = 0.1916	1176.12 ± 0.65	1529 ± 2	27.2 ± 0.6
298.15 K, x1 = 0.2992	1222.46 ± 0.65	1518 ± 2	49.04 ± 1
298.15 K, x1 = 0.3455	1237.11 ± 0.61	1513 ± 2	59.35 ± 1.2
298.15 K, x1 = 0.4175	1253.31 ± 0.6	1508 ± 2	73.04 ± 1.5
298.15 K, x1 = 0.5442	1269.42 ± 0.65	1495 ± 2	92.75 ± 1.9
298.15 K, x1 = 0.6829	1275.63 ± 0.71	1481 ± 2	101.4 ± 2.1
298.15 K, x1 = 0.8359	1277.72 ± 0.73	1458 ± 2	87.14 ± 1.8
298.15 K, x1 = 0.9342	1282.39 ± 0.73	1440 ± 2	58.7 ± 1.2
298.15 K, x1 = 0.9684	1281.99 ± 0.72	1434 ± 2	46.45 ± 1
298.15 K, x1 = 1	1283.95 ± 0.71	1432 ± 2	34.1 ± 0.7
303.15 K, x1 = 0.016	1037.47 ± 0.94	1551 ± 2	–
303.15 K, x1 = 0.0347	1054.26 ± 0.82	1547 ± 2	0.95 ± 0.09
303.15 K, x1 = 0.092	1095.4 ± 0.81	1536 ± 2	7.28 ± 0.19
303.15 K, x1 = 0.1316	1122.07 ± 0.73	1529 ± 2	12.27 ± 0.29
303.15 K, x1 = 0.1916	1155.56 ± 0.63	1523 ± 2	21.6 ± 0.47
303.15 K, x1 = 0.2992	1196 ± 0.62	1515 ± 2	37.85 ± 0.8
303.15 K, x1 = 0.3455	1207.13 ± 0.57	1510 ± 2	45.88 ± 0.96
303.15 K, x1 = 0.4175	1219.69 ± 0.58	1505 ± 2	56.62 ± 1.2
303.15 K, x1 = 0.5442	1228.51 ± 0.61	1491 ± 2	72.49 ± 1.5
303.15 K, x1 = 0.6829	1229.8 ± 0.63	1474 ± 2	79.75 ± 1.6
303.15 K, x1 = 0.8359	1232.02 ± 0.64	1446 ± 2	69.13 ± 1.4
303.15 K, x1 = 0.9342	1235.49 ± 0.66	1423 ± 2	48.37 ± 1
303.15 K, x1 = 0.9684	1237.36 ± 0.65	1415 ± 2	35.95 ± 0.8
303.15 K, x1 = 1	1239.74 ± 0.64	1408 ± 2	28.9 ± 0.6
308.15 K, x1 = 0.016	1030.03 ± 0.78	1533 ± 2	–
308.15 K, x1 = 0.0347	1043.78 ± 0.75	1530 ± 2	0.67 ± 0.06
308.15 K, x1 = 0.092	1080.92 ± 0.73	1521 ± 2	4.42 ± 0.13
308.15 K, x1 = 0.1316	1103.13 ± 0.68	1518 ± 2	9.53 ± 0.24
308.15 K, x1 = 0.1916	1133.63 ± 0.63	1511 ± 2	17.3 ± 0.38
308.15 K, x1 = 0.2992	1169.38 ± 0.65	1503 ± 2	30.7 ± 0.65
308.15 K, x1 = 0.3455	1179.79 ± 0.64	1500 ± 2	36.84 ± 0.77
308.15 K, x1 = 0.4175	1190.23 ± 0.66	1496 ± 2	45.89 ± 0.95
308.15 K, x1 = 0.5442	1198.01 ± 0.7	1485 ± 2	57.51 ± 1.2
308.15 K, x1 = 0.6829	1198.27 ± 0.73	1468 ± 2	63.11 ± 1.3
308.15 K, x1 = 0.8359	1198.28 ± 0.77	1437 ± 2	55.29 ± 1.1
308.15 K, x1 = 0.9342	1200.49 ± 0.79	1414 ± 2	37.86 ± 0.81
308.15 K, x1 = 0.9684	1202.65 ± 0.8	1404 ± 2	27.69 ± 0.61
308.15 K, x1 = 1	1205.43 ± 0.79	1392 ± 2	24.6 ± 0.51
313.15 K, x1 = 0.016	1020.1 ± 0.58	1529 ± 2	–
313.15 K, x1 = 0.0346	1031.41 ± 0.63	1529 ± 2	0.48 ± 0.03
313.15 K, x1 = 0.092	1060.41 ± 0.64	1521 ± 2	2.06 ± 0.07
313.15 K, x1 = 0.1316	1079.57 ± 0.6	1516 ± 2	5.97 ± 0.17
313.15 K, x1 = 0.1916	1100.33 ± 0.62	1511 ± 2	13.15 ± 0.3
313.15 K, x1 = 0.2992	1123.81 ± 0.7	1502 ± 2	24.74 ± 0.52
313.15 K, x1 = 0.3455	1129.72 ± 0.72	1498 ± 2	30.42 ± 0.64
313.15 K, x1 = 0.4175	1134.34 ± 0.78	1491 ± 2	36.87 ± 0.77
313.15 K, x1 = 0.5442	1134.82 ± 0.87	1474 ± 2	46.82 ± 0.97
313.15 K, x1 = 0.6829	1128.95 ± 0.9	1450 ± 2	52.39 ± 1.1
313.15 K, x1 = 0.8359	1123.69 ± 0.95	1411 ± 2	46.21 ± 0.96
313.15 K, x1 = 0.9342	1123.28 ± 0.99	1382 ± 2	30.9 ± 0.66
313.15 K, x1 = 0.9684	1124.6 ± 1	1370 ± 2	23.03 ± 0.49
313.15 K, x1 = 1	1126.81 ± 1	1356 ± 2	21.9 ± 0.45
